Data published in patent US9365489B2, “Nitrooxy alkanoic acids and derivatives thereof in feed for reducing methane emission in ruminants, and/or to improve ruminant performance” (priority 2009, dated 2016).
Marks after values point to notes of the source that are not given here.

Assays:
[1] = test system: protozoa (18SrRNA); assay: In vivo test: qPCR of total protozoa in rumen contents; details: rumen of sheep; for Total protozoa concentration: control 2.38 × 10^6; for Total protozoa, log10: control 6.35
Excerpt: (§1) The experimental design consisted of a cross-over design with 2 sheep per treatment in each period. The trial consisted in 3 consecutive periods of: 14 days of adaptation to the dose plus three consecutive days of methane measurements in chambers. This 14 days adaptation phase was established as the period necessary for wash out between different doses assayed in consecutive periods. During the last two days of methane measurements in chambers rumen contents samples were collected two hours after the morning feeding, sub sampled and immediately frozen prior DNA extraction and determination of volatile fatty acids and ammonia nitrogen concentration. Experimental animals were randomly allocated in three sub-groups of 2 animals and were assigned one of the three treatments (control, dose 1 and dose 2). The 3 sub-groups started the adaptation period with a gap of three days so they had the same number of adaptation days prior to methane measurement in the chambers. Each animal was held in cages with constant access to fresh water. The diet provided to the animals consisted of alfalfa hay chopped at 15 to 20 cm and concentrate in a proportion 1:1 at approximately 1.1 times the energy requirements maintenance level (Prieto et al, 1990) plus mineral-vitamin supplement. Fresh matter intake was monitored daily for each animal throughout the trial. The diet was provided to animals in two equal meals at 9.00 h and 14.00 h.
Samples of rumen contents were freeze-dried and thoroughly mixed by physical disruption using a bead beater (Mini-bead Beater; BioSpec Products, Bartlesville, Okla., USA) before DNA extraction, which was performed from approximately 50 mg sample using the QIAamp® DNA Stool Mini Kit (Qiagen Ltd, West Sussex, UK) following the manufacturer's instructions with the modification that a higher temperature (95° C.) was used for lysis incubation. DNA samples were used as templates for quantitative real-time PCR (qPCR) amplification. The numbers of total bacteria, total protozoa and total methanogenic archaea were quantified by Real Time—PCR (qPCR).
Different primer sets were used to amplify 16S rRNA gene-targeted total bacteria (Maeda et al. FEMS Inmunology and Medical Microbiology 39, 81-86, 2003), and protozoa (Sylvester et al. Journal Dairy Science. 88, 2083-2095 2005). […] The amplification efficiency was evaluated for each pair of primers with the following program: 5 min cycle at 95° C., 40 cycles at 95° C. for 15 s, 60° C. for 30 s, 72° C. for 55 s and, 75° C. during 6 s for fluorescent emission measures. The melting curve was built by increasing temperature from 55° C. to 95° C. and reading were taken every 5° C. […] The absolute amount of bacteria, protozoa and methanogenic archaea expressed as the number of DNA copies, was determined by using standards. […]

[2] = test system: methane emissions by sheep; assay: In vivo test for methane inhibition: methane emissions in chambers; details: for CH4, l/kg BW / CH4, l/day / CH4, l/kg DMI: average of 3 consecutive days; for CH4, l/kg BW: control 0.59; for CH4, l/day: control 25.5; for CH4, l/kg DMI: control 31.5; for reduction of methane emissions: vs control
Excerpt: as §1
The additive was provided twice a day through the ruminal cannula at the same time as the diet. The corresponding amount to each dose was added into 10 grams of grounded concentrate and wrapped in cellulose paper immediately before it was placed in the rumen. In order to avoid the volatility of the active molecule, both additives were kept in a cold room at 4° C. where the daily process of dispensing it in the cellulose bags was carried out.
The doses were 50 (dose 1) and 500 (dose 2) mg/animal per day. The higher dose was reached after 3 days of gradual increases (50, 200 and 500 mg), so the whole adaptation period was consequently extended for 3 more days.
On day 14 animals were introduced in the chambers for methane measurements for 3 consecutive days. Each chamber measured 1.8 m wide×1.8 m deep×1.5 m tall. Chamber air temperature was maintained between 15 and 20° C. Within each chamber, the animals were individually restrained in the same cages as in the adaptation period. Interruptions occurred daily at 8.30 h, when the chamber floor was cleaned, and the animals were fed. These interruptions had little impact on the daily emissions because fluxes were calculated three times per day and then averaged to derive the 23-hour emission value. Airflow and concentration of methane was measured for the intake and exhaust ducts of each chamber. Air velocity was continuously monitored over the day in each intake and exhaust duct for each chamber. The air stream in each of the 3 ducts (chamber 1, chamber 2 and background) was sub-sampled, and methane concentration was measured continuously using a gas analyzer ADM MGA3000 (Spurling works, Herts, UK). It took 8 min. to sequentially sample the airflow in all intake and exhaust ducts in both chambers (3 min. in chambers 1 and 2, 2 min for background). In summary, the flux of methane for each chamber was calculated for each of the 3-day periods of measurement from the difference of fresh-air input and chamber exhaust methane concentrations and mean air velocities.
Individual methane emissions, VFA profiles, ratio of acetate to propionate, ammonia N concentration, and log10 transformations of concentration of total bacteria, total protozoa and methanogenic archaea were analyzed for the following effects: additive dose, day of measurement, and their interaction using a repeated measures analysis of variance under the cross-over design arrangement of the experiment. The standard error of the mean (SEM) was computed for each analysis. […]

CCOC(=O)CCO[N+](=O)[O-] [Ethyl-3-nitrooxy propionate]
Total protozoa concentration ([1]; Dose 1 (50 mg/animal per day)): 2.08 × 10^6 copy gene numbers/g fresh matter
Total protozoa, log10 ([1]; Dose 1 (50 mg/animal per day)): 6.28 log10
Total protozoa concentration ([1]; Dose 2 (500 mg/animal per day)): 2.77 × 10^6 copy gene numbers/g fresh matter
Total protozoa, log10 ([1]; Dose 2 (500 mg/animal per day)): 6.43 log10
CH4, l/kg BW ([2]; Dose 1 (50 mg/animal per day)): 0.51^ab l/kg BW
CH4, l/day ([2]; Dose 1 (50 mg/animal per day)): 22.3^ab l/day
CH4, l/kg DMI ([2]; Dose 1 (50 mg/animal per day)): 26.0^ab l/kg DMI
CH4, l/kg BW ([2]; Dose 2 (500 mg/animal per day)): 0.42^b l/kg BW
CH4, l/day ([2]; Dose 2 (500 mg/animal per day)): 18^b l/day
CH4, l/kg DMI ([2]; Dose 2 (500 mg/animal per day)): 22.2^b l/kg DMI
reduction of methane emissions ([2]; dose 1 (50 mg/animal per day)): 18%
reduction of methane emissions ([2]; dose 2 (500 mg/animal per day), P<0.05): 29%
inhibition of methanogenesis (conclusion in words) ([2]; sheep, 50 and 500 mg/animal per day): strong inhibitor of methanogenesis
